Measurements published in patent US9266813B2, “Stilbenoid compound as inhibitor for squamous carcinoma and hepatoma and uses thereof” (AnnCare Bio-Tech Center Inc., priority 2013, dated 2016).
≈ marks a conversion by molar mass, not a printed value. Read-outs that look alike come from different tables or passages of the source.

Key:
[1] = system: Hep3B cells; experiment: MTT assay, antiproliferation on Hep3B cells; assay type: cell-based; conditions: for IC50: Homo sapiens, Hep3B cells, MTT
Description: (§1) Antiproliferations of compound 2-4 were determined by an improved MTT assay. The CAR cells were individually plated at a density of 2×10^4 cells/well onto 96-well plates and treated with Dimethyl sulfoxide (DMSO) alone (0.5% (v/v) in media served as a vehicle control) and various concentrations (0, 25, 50, 75 and 100 μM) of compound 2-4 for 24 and 48 hours. Following the above treatments, the supernatant was discarded before a 100 μL solution of MTT (500 μg/ml) was added to each well for 4 hours at 37 °C. After incubation, the medium was replaced by the addition of 200 μL DMSO to solubilize the violet formazan crystal produced from MTT. The absorbance of the dissolved formazan grained within the cells was measured at 570 nm by a microplate reader to calculate viability (data shown as % of control).
(§2) Please refer to Table 1. Hep3B cells and CAR cells were treated by different concentrations of the compounds of the invention for 48 and 72 hours, and the antiprolifieration effect of such compounds was evaluated using MTT assay. Data are presented as IC50 (μM), the concentration of 50% proliferation-inhibitory effect.
The anti-proliferative ability of compound 2-4 in hepatocellular carcinoma was evaluated in Hep3B cells using MTT assay. Hep3B cells were treated with various concentrations of compound 2-4 for 48 and 72 hours.

[2] = system: CAR cells; experiment: MTT assay, antiproliferation on cisplatin-resistant head and neck squamous carcinoma (CAR) cells; assay type: cell-based, human; conditions: for IC50: Homo sapiens, CAR cells, MTT
Description: The human head and neck carcinoma cell line CAL27 was obtained from American Tissue Culture Collection (ATCC). The cisplatin-resistant cell line CAR (CAL27-cisplatin resistance) was established by clonal selection of CAL27 using 10 cycles of 1 passage treatment with 10-80 μM of cisplatin (Sigma-Aldrich Corp. (St. Louis, Mo., USA) followed by a recovery period of another passage. CAR cells were cultivated in Dulbecco's modified Eagle's medium (DMEM) supplemented with 10% FBS, 100 μg/mL streptomycin, 100 U/mL penicillin G, 2 mM L-glutamine (Gibco by Life Technologies (Carlsbad, Calif., USA)) and 80 μM of cisplatin (Sigma-Aldrich Corp. (St. Louis, Mo., USA).
as §1, §2
MTT assay was utilized and CAR cells were treated with compound 2-4 in different concentration for 24, 48 and 72 hours. […] The IC50 after 72 hours of treatment was 50 μM.

[3] = system: CAR xenograft; experiment: Xenograft antitumor study in CAR xenograft nude mice; assay type: in vivo, BALB/c nude mice
Source text: All animal experiments of the invention complied with institutional guidelines (Affidavit of Approval of Animal Use Protocol) approved by the Institutional Animal Care and Use Committee (IACUC) of China Medical University (Taichung, Taiwan). All pathogen-free four-week-old male BALB/c nude mice were purchased from the National Laboratory Animal Center (Taipei, Taiwan). These animals were housed at a constant room temperature with a regular 12-hour light/12-hour dark cycle and hereafter fed a standard rodent diet and water ad libitum.
The CAR cells (1×10^7 cells/mouse) in 0.2 mL (1:1) cultural medium and Matrigel (BD Biosciences) were subcutaneously injected into the flank of nude mice. When xenograft tumors reached approximately 50 mm^3 (at day 22 after cell inoculation), thirty two mice were randomly divided into four groups with eight mice in each group. The experimental group were given oral treatments included compound 2-4 at the dosages of 25, 50 and 100 mg/kg body weight, respectively, using an everyday 30 times (dosing regimen: QD×30, p.o.); whereas control group were given orally with 30 μL of DMSO throughout the experimental period. The tumor size (mm^3) from each mouse was determined utilizing a caliper by calculating as 0.5×length×(width)^2. At the end of treatment, all animals were anaesthetized by carbon dioxide (CO2) and sacrificed on 31st day. The tumor tissues from each mouse were removed then measured and weighed individually as previously reported.
Compound 2-4 was evaluated in the CAR xenograft nude mice by oral route (p.o.) at dose of 25, 50, and 100 mg/kg/day in a schedule of QD×30. […] At the 100 mg/kg/day dose of compound 2-4, the weight of CAR tumor was reduced down to 22% that of the vehicle control (FIG. 5).

[4] = Biochemical analysis of blood of CAR xenograft mice after 30 days of treatment; assay type: in vivo, BALB/c nude mice
Description: All mice were monitored the relative toxicity of each group after the animals were sacrificed, and whole blood samples were drawn from the heart for biochemical measurements to evaluate the safety of compound 2-4. Briefly, blood was collected from each mouse and allowed to clot and centrifuged at 1000×g for 10 minutes at room temperature for further biochemical tests including total protein, albumin, creatinine, blood urea nitrogen (BUN), uric acid and glucose.
Furthermore, after 30 days of treatment, these mice were sacrificed and their blood samples were collected for biochemical quantification of total protein, albumin, creatinine, blood urea nitrogen, uric acid and glucose.

[5] = system: Human normal gingival fibroblasts cells (HGF); experiment: MTT viability of normal gingival fibroblasts (HGF); assay type: cell-based; conditions: 0, 25, 50 and 100 μM, 72 hours, FIG. 7 (A)
Description: (§3) Human normal gingival fibroblasts cells (HGF) and human normal oral keratinocyte cells (OK) were acquired from Department of Dental Hygiene, China Medical University, Taiwan. HGF and OK were cultivated in DMEM.
(§4) Both HGF and OK cells (1×10^4 cells) were placed into a 96-well plate and were incubated with 0, 25, 50 and 100 μM of compound 2-4 for 24, 48 and 72 hours. For incubation with the autophagy inhibitor, cells were pretreated with […] (3-MA, 10 mM) for 1 hour, followed by treatment with or without compound 2-4 (50 and 75 μM) for 48 hours. After washing the cells, DMEM containing MTT (0.5 mg/mL) was added to detect viability. The cell viability was expressed as % of the control.
(§5) In FIG. 7, (A) indicates HGF cells and (B) indicates OK cells after exposure to various concentrations of compound 2-4 for 72 hours. The cell viability is determined by MTT assay and the data shown represent the mean±S.E.M (n=3).

[6] = system: human normal oral keratinocyte cells (OK); experiment: MTT viability of normal oral keratinocytes (OK); assay type: cell-based; conditions: 0, 25, 50 and 100 μM, 72 hours, FIG. 7 (B)
Description: as §3, §4, §5

[7] = Water solubility assay; assay type: physicochemical; conditions: read-out: Water solubility, Content
Source text: The water solubility of the compounds of the present invention can be determined by methods known in the art and the result is shown in Table 3.

[8] = 25 mg/kg p.o. QD×30, mean ± S.E.M.
[9] = 50 mg/kg p.o. QD×30, mean ± S.E.M.
[10] = 100 mg/kg p.o. QD×30, mean ± S.E.M.

COc1cc(/C=C/c2ccc(OC(=O)C(C)(CO)CO)cc2)cc(OC)c1 [Compound 2-4, 4-(3,5-dimethoxystyryl)phenyl-3-hydroxy-2-(hydroxymethyl)-2-methylpropanoate]
inhibition on cell viability in Hep3B cells ([1]; 48 and 72 hours, FIG. 2): concentration-dependent inhibition on cell viability
anticancer activity compared with resveratrol and pterostilbene ([1]; Hep 3B and CAR cells, Table 1): more potent anticancer activity than resveratrol and pterostilbene
IC50 ([1]; 48 hours, Example 19 text, read-out: IC50 after 48 hours of treatment (FIG. 2)): 50 µM
IC50 ([1]; 48 hours, read-out: Hep 3B (IC50 (μM)) 48 hours): 63.5 µM
IC50 ([1]; 72 hours, read-out: Hep 3B (IC50 (μM)) 72 hours): 43.8 µM
antiproliferative effect on CAR cells ([2]; 24, 48 and 72 hours, FIG. 1): concentration- and time-dependent antiproliferative effect
IC50 ([2]; 48 hours, read-out: CAR (IC50 (μM)) 48 hours): 73 µM
IC50 ([2]; 72 hours, Example 18 text, read-out: IC50 after 72 hours of treatment (FIG. 1)): 50 µM
IC50 ([2]; 72 hours, read-out: CAR (IC50 (μM)) 72 hours): 45.2 µM
tumor growth suppression ([3]; p.o. 25 mg/kg/day, QD×30): Significant tumor growth suppression
weight of CAR tumor relative to vehicle control ([3]; p.o. 100 mg/kg/day, QD×30, FIG. 5): 22%
effect on CAR tumor weight ([3]; p.o. 25, 50, 100 mg/kg/day, QD×30, FIG. 5): dose-dependent inhibitory effect
body weight change ([3]; p.o. 25, 50, 100 mg/kg/day, QD×30, FIG. 6): no significant body weight change
effect on CAR tumor size ([3]; p.o. 25, 50, 100 mg/kg/day, QD×30, FIGS. 3 and 4): dose-dependent inhibitory effect
Albumin [4, 8]: 3.666 ± 0.052 g/dL
Blood urea nitrogen [4, 8]: 28.200 ± 5.784 mg/dL
Creatinine [4, 8]: 1.133 ± 0.109 mg/dL
Glucose [4, 8]: 181.333 ± 32.067 mg/dL
Total Protein [4, 8]: 5.383 ± 0.117 g/dL
Uric acid [4, 8]: 4.567 ± 0.784 mg/dL
Albumin [4, 9]: 3.417 ± 0.075 g/dL
Blood urea nitrogen [4, 9]: 30.950 ± 1.265 mg/dL
Creatinine [4, 9]: 0.910 ± 0.077 mg/dL
Glucose [4, 9]: 172.500 ± 6.504 mg/dL
Total Protein [4, 9]: 5.583 ± 0.376 g/dL
Uric acid [4, 9]: 5.450 ± 0.878 mg/dL
Albumin [4, 10]: 3.400 ± 0.089 g/dL
Blood urea nitrogen [4, 10]: 29.250 ± 3.855 mg/dL
Creatinine [4, 10]: 0.830 ± 0.128 mg/dL
Glucose [4, 10]: 196.500 ± 8.643 mg/dL
Total Protein [4, 10]: 5.283 ± 0.194 g/dL
Uric acid [4, 10]: 5.050 ± 1.882 mg/dL
toxicity when orally administered ([4]; CAR xenograft mice, oral, 30 days): very low toxicity
blood analysis result versus vehicle control mice ([4]; after 30 days of oral treatment, Table 2): no significant difference in blood analysis result
cell viability of HGF cells [5]: no viability impact is observed
cell viability of OK cells [6]: no viability impact is observed
solubility [7]: 0.018 mg/mL (≈ 48.3 µM)
